Laboratory results reported in the supplement of paper PMC10307832.

How the values were obtained:
Assay in all cases: relative viability (nuclei count vs DMSO), 5 days (fraction); higher = more cells survive
[1] = compound: CN1CCN(c2ccc3nc(-c4c(N)c5c(F)cccc5[nH]c4=O)[nH]c3c2)CC1 [Dovitinib] + CC(=O)c1c(C)c2cnc(Nc3ccc(N4CCNCC4)cn3)nc2n(C2CCCC2)c1=O [Palbociclib] (partner 0.5 µM)
Procedure, shortened: (§1)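 Dosing by pin tool came one day after lung cancer cell lines were seeded in 1536-well plates, using either one drug or a fixed anchor-drug dose plus five library-drug doses (not always all listed) in √10 steps. After 5 days, nuclei were counted on 4× images. Relative viability is treated-well nuclei count divided by vehicle-well nuclei count, and values are medians of duplicate plates.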

[2] = compound: CN1CCN(c2ccc3nc(-c4c(N)c5c(F)cccc5[nH]c4=O)[nH]c3c2)CC1 [Dovitinib] + Cc1nc(NC(=O)N2CCC[C@H]2C(N)=O)sc1-c1ccnc(C(C)(C)C(F)(F)F)c1 [Alpelisib] (partner 2 µM)
Procedure, shortened: as §1

[3] = compound: CN1CCN(c2ccc3nc(-c4c(N)c5c(F)cccc5[nH]c4=O)[nH]c3c2)CC1 [Dovitinib] + Nc1nc2[nH]cc(CCc3ccc(C(=O)N[C@@H](CCC(=O)O)C(=O)O)cc3)c2c(=O)[nH]1 [Pemetrexed] (partner 0.2 µM)
Procedure, shortened: as §1

[4] = compound: CN1CCN(c2ccc3nc(-c4c(N)c5c(F)cccc5[nH]c4=O)[nH]c3c2)CC1 [Dovitinib] + O=C(c1cc(Cc2n[nH]c(=O)c3ccccc23)ccc1F)N1CCN(C(=O)C2CC2)CC1 [Olaparib] (partner 8 µM)
Procedure, shortened: as §1

Row | Cell Line | relative viability ([1]; first compound 0.02 µM) | relative viability ([1]; first compound 0.06325 µM) | relative viability ([1]; first compound 0.2 µM) | relative viability ([1]; first compound 0.6325 µM) | relative viability ([1]; first compound 2 µM) | relative viability ([2]; first compound 0.02 µM) | relative viability ([2]; first compound 0.06325 µM) | relative viability ([2]; first compound 0.2 µM) | relative viability ([2]; first compound 0.6325 µM) | relative viability ([2]; first compound 2 µM) | relative viability ([3]; first compound 0.02 µM) | relative viability ([3]; first compound 0.06325 µM) | relative viability ([3]; first compound 0.2 µM) | relative viability ([3]; first compound 0.6325 µM) | relative viability ([3]; first compound 2 µM) | relative viability ([4]; first compound 0.02 µM) | relative viability ([4]; first compound 0.06325 µM) | relative viability ([4]; first compound 0.2 µM) | relative viability ([4]; first compound 0.6325 µM) | relative viability ([4]; first compound 2 µM)
1 | NCI-H2405 | 0.511 | 0.516 | 0.546 | 0.504 | 0.556 | 0.819 | 0.744 | 0.791 | 0.77 | 0.965 | 1.05 | 1.02 | 1.25 | 1.08 | 1.11 | 0.858 | 0.849 | 0.944 | 0.815 | 0.903
2 | NCI-H3122 | 0.226 | 0.173 | 0.184 | 0.181 | 0.21 | 0.703 | 0.681 | 0.8 | 0.82 | 0.839 | 0.194 | 0.207 | 0.199 | 0.186 | 0.189 | 0.623 | 0.619 | 0.663 | 0.56 | 0.536
3 | PC-3 [JPC-3] | 0.518 | 0.58 | 0.55 | 0.555 | 0.517 | 1.03 | 1.01 | 1.02 | 1.09 | 0.909 | 1.12 | 1.12 | 1.16 | 1.3 | 1.21 | 1.16 | 1.16 | 1.14 | 1.13 | 1.15
4 | PC-14 | 0.461 | 0.622 | 0.572 | 0.467 | 0.537 | 0.805 | 1.03 | 0.966 | 0.946 | 0.883 | 0.128 | 0.134 | 0.121 | 0.141 | 0.132 | 0.291 | 0.276 | 0.27 | 0.217 | 0.247
5 | RERF-LC-KJ | 1.09 | 1 | 1.08 | 1.1 | 1.01 | 0.794 | 0.825 | 0.852 | 0.822 | 0.87 | 0.47 | 0.49 | 0.483 | 0.475 | 0.47 | 0.932 | 0.892 | 0.939 | 0.982 | 0.896
6 | SK-LU-1 | 0.39 | 0.372 | 0.358 | 0.481 | 0.38 | 0.928 | 0.946 | 0.951 | 0.805 | 1.16 | 0.985 | 0.92 | 0.913 | 1 | 1.02 | 0.418 | 0.487 | 0.446 | 0.501 | 0.452
7 | SK-MES-1 | 0.35 | 0.378 | 0.306 | 0.37 | 0.374 | 0.852 | 0.89 | 0.907 | 0.936 | 0.971 | 0.941 | 0.958 | 0.972 | 0.966 | 1.03 | 0.682 | 0.749 | 0.74 | 0.773 | 0.829
8 | SW 1573 | 0.402 | 0.421 | 0.435 | 0.348 | 0.386 | 0.785 | 0.798 | 0.703 | 0.657 | 0.753 | 0.853 | 0.859 | 0.858 | 0.868 | 0.861 | 0.512 | 0.525 | 0.593 | 0.446 | 0.507
9 | UMC-11 | 0.334 | 0.34 | 0.346 | 0.343 | 0.348 | 0.958 | 0.941 | 0.892 | 0.82 | 0.961 | 0.808 | 0.787 | 0.838 | 0.876 | 0.822 | 0.334 | 0.352 | 0.383 | 0.387 | 0.435
